Assay results from publication PMC6185904 (Nature Communications, 2018).

How the values were obtained:
[1] = molecular target: T1, NhaA (sodium/proton antiporter), dimeric NhaA-GFP (Escherichia coli, UniProt P13738); assay: FSEC-TS thermal shift, purified NhaA-GFP; format: binding; details: purified in DDM; dimer
T1 construct: full-length, C-terminal GFP-8His fusion (pWaldo GFPd), expressed in E. coli Lemo21(DE3), purified in DDM; homodimer
T1 sequence (P13738 1-388): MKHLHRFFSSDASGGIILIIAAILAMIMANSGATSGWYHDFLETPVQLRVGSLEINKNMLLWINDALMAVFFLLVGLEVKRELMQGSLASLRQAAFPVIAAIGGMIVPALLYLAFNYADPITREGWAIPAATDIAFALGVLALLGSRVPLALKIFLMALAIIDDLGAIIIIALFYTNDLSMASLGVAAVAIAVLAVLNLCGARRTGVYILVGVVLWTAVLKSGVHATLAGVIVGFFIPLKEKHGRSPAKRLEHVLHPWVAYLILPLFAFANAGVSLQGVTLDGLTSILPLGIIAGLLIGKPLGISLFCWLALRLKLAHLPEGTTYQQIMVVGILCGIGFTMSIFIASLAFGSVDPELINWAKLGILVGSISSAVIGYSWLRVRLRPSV

[2] = molecular target: T1, NhaA (sodium/proton antiporter), dimeric NhaA-GFP; assay: FSEC-TS titration of dimer stabilization, nonlinear regression; format: binding; details: pH 7.5, 150 mM NaCl, 0.03% DDM plus 1% beta-OG, heated at 47 °C; 19 CL concentrations; dimer interface site; read-out: CL dependent oligomerization concentration (midpoint)
[3] = molecular target: T2, human CMP–sialic acid transporter SLC35A1 (human CMP–Sia) (Homo sapiens, UniProt P78382); assay: GFP-TS titration, one-site fit, DDM-solubilized membranes (also ITC on purified protein)
T2 construct: full-length, GFP-8His fusion (pDDGFP-2), expressed in S. cerevisiae FGY217; DDM-solubilized membranes or purified
T2 sequence (P78382 1-337): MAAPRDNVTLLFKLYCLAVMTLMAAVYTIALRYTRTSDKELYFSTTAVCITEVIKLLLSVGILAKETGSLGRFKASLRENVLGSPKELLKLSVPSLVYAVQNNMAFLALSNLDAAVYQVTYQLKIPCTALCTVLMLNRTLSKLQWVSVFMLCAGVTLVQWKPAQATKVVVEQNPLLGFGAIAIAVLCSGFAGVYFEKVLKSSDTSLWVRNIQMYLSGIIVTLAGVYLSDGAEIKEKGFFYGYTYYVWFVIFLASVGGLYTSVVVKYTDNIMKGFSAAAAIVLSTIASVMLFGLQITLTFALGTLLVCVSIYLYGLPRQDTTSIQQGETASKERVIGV
Description: GFP-TS titration, one-site fit, DDM-solubilized membranes (also ITC on purified protein) on human CMP–sialic acid transporter SLC35A1 (human CMP–Sia) | we used the GFP-TS to determine CMP binding affinities (Kd) for the plant and human

[4] = molecular target: T2, human CMP–sialic acid transporter SLC35A1 (human CMP–Sia); assay: GFP-TS thermostabilization, DDM-solubilized membranes; format: binding; details: 5 mM ligand, heated at 42 °C, pH 7.5, 150 mM NaCl, DDM plus 1% beta-OG
[5] = molecular target: T3, putative Zea mays CMP–sialic acid transporter (Z. mays CMP–Sia) (Zea mays, UniProt B4FZ94); assay: as above; format: binding; details: 5 mM ligand, heated at 54 °C, pH 7.5, 150 mM NaCl, DDM plus 1% beta-OG
T3 construct: gene ZEAMMB73_Zm00001d046060; full-length synthesized clone, GFP-8His fusion (pDDGFP-2), expressed in S. cerevisiae FGY217; DDM-solubilized membranes or purified
T3 sequence (B4FZ94 1-322): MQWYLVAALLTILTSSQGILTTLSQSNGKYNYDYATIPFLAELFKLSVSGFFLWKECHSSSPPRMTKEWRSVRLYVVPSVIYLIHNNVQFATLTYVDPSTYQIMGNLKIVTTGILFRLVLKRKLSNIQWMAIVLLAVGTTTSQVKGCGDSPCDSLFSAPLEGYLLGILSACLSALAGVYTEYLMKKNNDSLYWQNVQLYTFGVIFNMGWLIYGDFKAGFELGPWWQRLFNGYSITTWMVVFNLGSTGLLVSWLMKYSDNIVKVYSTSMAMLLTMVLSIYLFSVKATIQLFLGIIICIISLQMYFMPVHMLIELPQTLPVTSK

[6] = molecular target: T4, human NHA2 (Homo sapiens, UniProt Q86UD5); assay: GFP-TS lipid screen, purified GFP fusion; format: binding; details: 3 mg/mL lipid, heated at apparent Tm + 5 °C, pH 7.5, 150 mM NaCl, DDM plus 1% beta-OG
T4 construct: gene SLC9B2; GFP-8His fusion (pDDGFP-2), expressed in S. cerevisiae FGY217, purified in DDM
T4 sequence (Q86UD5 1-537): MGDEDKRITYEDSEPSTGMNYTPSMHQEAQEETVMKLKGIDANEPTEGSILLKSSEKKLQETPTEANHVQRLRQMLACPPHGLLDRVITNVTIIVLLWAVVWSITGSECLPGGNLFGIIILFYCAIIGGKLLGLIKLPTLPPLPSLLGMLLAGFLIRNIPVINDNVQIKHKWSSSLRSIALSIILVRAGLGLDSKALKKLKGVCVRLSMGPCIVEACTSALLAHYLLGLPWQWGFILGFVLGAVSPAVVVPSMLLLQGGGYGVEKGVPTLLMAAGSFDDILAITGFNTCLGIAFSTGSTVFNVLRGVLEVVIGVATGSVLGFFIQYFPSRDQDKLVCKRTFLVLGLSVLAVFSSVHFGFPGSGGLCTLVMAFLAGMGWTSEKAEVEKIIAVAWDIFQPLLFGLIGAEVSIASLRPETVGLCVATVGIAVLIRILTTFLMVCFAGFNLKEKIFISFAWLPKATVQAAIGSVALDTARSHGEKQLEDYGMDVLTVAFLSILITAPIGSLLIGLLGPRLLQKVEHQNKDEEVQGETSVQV

In the case of CCCCCCCC/C=C\CCCCCCCC(=O)OC[C@H](COP(=O)(O)OCC(O)COP(=O)(O)OC[C@@H](COC(=O)CCCCCCC/C=C\CCCCCCCC)OC(=O)CCCCCCC/C=C\CCCCCCCC)OC(=O)CCCCCCC/C=C\CCCCCCCC (stereo partly drawn) [CL, cardiolipin (18:1)], the “apparent Tm without to with cardiolipin” value [1] is reported as 42 to 53 °C and the EC50 [2] is reported as 1400 µM.

Work on Nc1ccn([C@@H]2O[C@H](COP(=O)(O)O)[C@@H](O)[C@H]2O)c(=O)n1 [CMP] yielded a Kd [3] of 19.5 ± 3.8 µM.

For CC(=O)N[C@H]1[C@H]([C@H](O)[C@H](O)CO)O[C@](OP(=O)(O)OC[C@H]2O[C@@H](n3ccc(N)nc3=O)[C@H](O)[C@@H]2O)(C(=O)O)C[C@@H]1O [CMP–sialic acid], the “supernatant fluorescence after heating” value [4] was “almost identical stabilization profile for substrates was observed for the human CMP–sialic acid transporter” and the “supernatant fluorescence after heating” value [5] was “higher thermostablization for CMP–sialic acid as compared to the addition of sialic acid only”.

In the case of CCCCCCCC/C=C\CCCCCCCC(=O)OC[C@H](COP(=O)(O)OCC(O)CO)OC(=O)CCCCCCC/C=C\CCCCCCCC (stereo partly drawn) [DOPG], the “supernatant fluorescence after heating” value [6] is reported as “human NHA2, where the addition of PG was clearly stabilizing”.
